From patent US6197760A (priority 2000, dated 2001)
“Also recorded” adds a separate entry of the source. Where two headings read alike, the source gives them in different places.

Key:
in vivo [1] = conditions: mouse, ip
L1210/CPA leukemia = format: in vivo, male CDF1 mice; conditions: mouse, in vivo
L1210/0 leukemia = conditions: mouse, in vivo
[2] = test system: MX-1 mammary tumor xenograft; format: in vivo, human
in vivo [3] = conditions: mouse, ip, MTD Dosage (highest non-toxic dose, LD10 or less)
mammary tumor 16/C = test system: mammary tumor 16/C; parameters: species or system murine; conditions: mouse, in vivo
P388 leukemia [4] = conditions: mouse, in vivo; cited from earlier work
Lewis lung carcinoma = conditions: mouse, in vivo
M5076 sarcoma [5] = conditions: mouse, in vivo; cited from earlier work
[6] = test system: MCF-7 mammary tumor xenograft; parameters: species or system human; conditions: in vivo; for Days delay (T-C): sc
HeLa cells = conditions: in vitro; cited from earlier work
LOX-IMVI melanoma = assay: Evaluation against i.p. implanted LOX-IMVI melanoma (Table 6); format: in vivo, human; conditions: for 55-Day Surv./Total / % ILS / Median Day of Death: IP, Q1DX1 (1)
Protocol: BM-IPM was evaluated vs. human LOX-IMVI melanoma and produced a 52% increase in life span (ILS) and 20% survivors, while IPM yielded an identical ILS with no survivors.
Evaluation of BM-IPM Against I.P. Implanted Human
Treatment: IP: Q1DX1 (1) Therapeutic Response

P388 leukemia [7] = test system: P388 leukemia; parameters: species or system murine; conditions: mouse, in vivo; for 45-Day Surv/Total / % ILS / Approx. Net Log10 Change In Tumor Burden at End of Rx / Median Day of Death: ip, 100 mg/kg
M5076 sarcoma [8] = assay: Response of s.c. implanted M5076 sarcoma (Table 4); format: in vivo, murine; conditions: for days T-C: Table 4, dose not given
Protocol: Response of S.C. Implanted M5076 Sarcoma to Treatment with
The compounds were injected i.p. daily on days 11-15.

[9] = test system: experimental leukemias and solid tumors; parameters: species or system mice and rats; conditions: in vivo
[10] = 18 mg/kg i.p. daily on days 11-15
[11] = 27 mg/kg i.p. daily on days 11-15
[12] = 40 mg/kg i.p. daily on days 11-15

O=P1(NCCCl)OCCCN1CCCl (stereo not drawn) [Ifos, ifosfamide]
MTD (in vivo [1]): 300 mg/kg
% ILS (dying mice only) (L1210/CPA leukemia): +85
Day 60 survivors/total (L1210/CPA leukemia): 0/10
Net log10 reduction in tumor burden after therapy (L1210/CPA leukemia): 5
% ILS (dying mice only) (L1210/CPA leukemia; ip, 289 mg/kg): +57
Day 60 survivors/total (L1210/CPA leukemia; ip, 289 mg/kg): 0/10
Net log10 reduction in tumor burden after therapy (L1210/CPA leukemia; ip, 289 mg/kg): 4
% ILS (dying mice only) (L1210/0 leukemia): +185
Day 60 survivors/total (L1210/0 leukemia): 0/10
Net log10 reduction in tumor burden after therapy (L1210/0 leukemia): 8
MTD Dosage (highest non-toxic dose, LD10 or less) (L1210/0 leukemia; ip): 289 mg/kg
% ILS (dying mice only) (L1210/0 leukemia; ip, 289 mg/kg): +114
Day 60 survivors/total (L1210/0 leukemia; ip, 289 mg/kg): 0/9
Net log10 reduction in tumor burden after therapy (L1210/0 leukemia; ip, 289 mg/kg): 8
activity vs. MX-1 ([2]; in vivo): high activity
MTD (in vivo [3]): 431 mg/kg
tumor response / comparative activity vs. 16/C (mammary tumor 16/C): none of which caused tumor regression
comparative activity vs. P388 leukemia, historically (P388 leukemia [4]): comparably active to CM-IPM
comparative activity against Lewis lung carcinoma (Lewis lung carcinoma): equivalent activity at equal host toxicity
cure rate (Lewis lung carcinoma): 50-70%
% ILS (increase in life span, excluding survivors) (Lewis lung carcinoma; ip): 55
Log kill total (Log10 cell kill) (Lewis lung carcinoma; ip): > 4.5
Tumour-free survivors (Lewis lung carcinoma; ip): 7/10
comparative activity vs. M5076 sarcoma, historically (M5076 sarcoma [5]): comparably active to CM-IPM
Days delay (T-C) [6]: > 39.7

O=P(O)(NCCBr)NCCBr [BB-IPM]
cytotoxicity to HeLa cells (HeLa cells): cytotoxic to HeLa cells in vitro
Days delay (T-C) [6]: 1.7

O=P(O)(NCCCl)NCCBr [BC-IPM]
cytotoxicity to HeLa cells (HeLa cells): cytotoxic to HeLa cells in vitro
Days delay (T-C) [6]: 5.8

CS(=O)(=O)OCCNP(=O)(O)NCCBr [BM-IPM]
comparative activity vs. LOX melanoma (LOX-IMVI melanoma): comparably active to IPM but less active than CPA
55-Day Surv./Total (LOX-IMVI melanoma; 15 mg/kg/dose): 0/5
% ILS (LOX-IMVI melanoma; 15 mg/kg/dose): +26%
Median Day of Death (LOX-IMVI melanoma; 15 mg/kg/dose): 24.0 days
55-Day Surv./Total (LOX-IMVI melanoma; 30 mg/kg/dose): 1/5
% ILS (LOX-IMVI melanoma; 30 mg/kg/dose): +52%
Median Day of Death (LOX-IMVI melanoma; 30 mg/kg/dose): 29.0 days
increase in life span (ILS) (LOX-IMVI melanoma; Table 6): 52%
survivors (LOX-IMVI melanoma; Table 6): 20%
activity vs. MX-1 ([2]; experiment analogous to MCF-7): good activity; also recorded: more active but less so than CPA and Ifos
tumor response / comparative activity vs. 16/C (mammary tumor 16/C): superior to the clinical drugs CPA and Ifos and to MM-IPM
log cell kill (P388 leukemia [7]): 5.5 log
45-Day Surv/Total (P388 leukemia [7]): 0/5
% ILS (P388 leukemia [7]): +73
Approx. Net Log10 Change In Tumor Burden at End of Rx (P388 leukemia [7]): -5.5
Median Day of Death (P388 leukemia [7]): 19.0
Days delay (T-C) [6]: 4.7
Days delay (T-C) (M5076 sarcoma [8]; [10]): 0.8 days
Days to 2 Doublings (M5076 sarcoma [8]; [10]): 10.1 days
Tumor-free Surv/Total (M5076 sarcoma [8]; [10]): 0/6
Days delay (T-C) (M5076 sarcoma [8]; [11]): 7.2 days
Days to 2 Doublings (M5076 sarcoma [8]; [11]): 16.5 days
Tumor-free Surv/Total (M5076 sarcoma [8]; [11]): 0/6
Days to 2 Doublings (M5076 sarcoma [8]; [12]): Toxic
Tumor-free Surv/Total (M5076 sarcoma [8]; [12]): 0/6
days T-C (M5076 sarcoma [8]): 7.2 days

N[C@@H](Cc1ccc(N(CCCl)CCCl)cc1)C(=O)O [Melphalan]
Days delay (T-C) [6]: 28.1

CS(=O)(=O)OCCNP(=O)(O)NCCF [FM-IPM]
45-Day Surv/Total (P388 leukemia [7]): 0/5
% ILS (P388 leukemia [7]): +10
Approx. Net Log10 Change In Tumor Burden at End of Rx (P388 leukemia [7]): -1.4
Median Day of Death (P388 leukemia [7]): 13.0

CS(=O)(=O)OCCNP(=O)(O)NCCCl [CM-IPM]
activity vs. MX-1 ([2]; experiment analogous to MCF-7): only modest activity; also recorded: modestly active relative to CPA and Ifos
comparative activity vs. three experimental leukemias and solid tumors [9]: superior to IPM and other IPM analogs, including MM-IPM, vs. all three tumors
tumor response / comparative activity vs. 16/C (mammary tumor 16/C): superior to the clinical drugs CPA and Ifos and to MM-IPM; also recorded: comparable to BM-IPM vs. 16/C mammary tumor, and superior to CPA and Ifos vs. 16/C tumor
log cell kill (P388 leukemia [7]): 6.1 log
45-Day Surv/Total (P388 leukemia [7]): 0/5
% ILS (P388 leukemia [7]): +82
Approx. Net Log10 Change In Tumor Burden at End of Rx (P388 leukemia [7]): -6.1
Median Day of Death (P388 leukemia [7]): 20.0
comparative activity vs. MCF-7 [6]: equal in activity to Ifos, slightly superior to IPM and melphalan (the positive control) and significantly superior to CPA and all of the other analogs; also recorded: superior to MM-IPM, BC-IPM and CPA, slightly more active than IPM, and equally active to Ifos
Days delay (T-C) [6]: > 39.7
Days delay (T-C) (M5076 sarcoma [8]; [10]): 2.3 days
Days to 2 Doublings (M5076 sarcoma [8]; [10]): 11.6 days
Tumor-free Surv/Total (M5076 sarcoma [8]; [10]): 0/6
Days delay (T-C) (M5076 sarcoma [8]; [11]): 12.2 days
Days to 2 Doublings (M5076 sarcoma [8]; [11]): 21.5 days
Tumor-free Surv/Total (M5076 sarcoma [8]; [11]): 0/6
Days delay (T-C) (M5076 sarcoma [8]; [12]): 23.2 days
Days to 2 Doublings (M5076 sarcoma [8]; [12]): 32.5 days
Tumor-free Surv/Total (M5076 sarcoma [8]; [12]): 0/6
days T-C (M5076 sarcoma [8]): 23.2 days

CS(=O)(=O)OCCCNP(=O)(O)NCCCl [CM3-IPM]
45-Day Surv/Total (P388 leukemia [7]): 0/5
% ILS (P388 leukemia [7]): +9
Approx. Net Log10 Change In Tumor Burden at End of Rx (P388 leukemia [7]): -0.7
Median Day of Death (P388 leukemia [7]): 12.0
